Test system: primary human renal proximal tubule epithelial cells
Assay: WST-8 cell proliferation assay (MTC)
Format: cell-based
Details: up to limits of solubility
Experimental: WST-8 Cell Proliferation Assays
Primary human renal proximal tubule epithelial cells (RPTECs) were purchased from ATCC (Manassas, Va.) and immediately cultured upon receipt. Complete growth media was prepared using renal epithelial cell basal medium (ATCC, PCS-400-030), renal epithelial cell growth kit (ATCC, PCS-400-040), and penicillin-streptomycin (10 units/mL and 10 μg/mL). Complete media was stored at 4° C. in the dark and used within 28 days. Primary RPTECs were grown in CO2 incubator at 37° C. with an atmosphere of 95% air/5% CO2.
WST-8 cell proliferation assay kit (Ser. No. 10/010,199) was purchased from Cayman Chemical Company (Ann Arbor, Mich.) and stored at −20° C. and used within 6 months of receipt. WST-8 reagent and electron mediator solution were thawed and mixed to prepare the WST-8 reagent solution. The solution was stored at −20° C. and used within one week.
A suspension of primary RPTECs in complete growth media was brought to a concentration of 1×10^5 cells/mL. A 96-well plate was seeded with 99 μL of the cell suspension and incubated at 37° C. with an atmosphere of 95% air/5% CO2 for 3 hours. Positive and negative controls were prepared by seeding with 100 μL of the cell suspension or 100 μL of the complete media. Compounds were prepared as 5 mM (AmB), 20 mM (C2′deOAmB), and 50 mM (C2′epiAmB) stock solutions in DMSO and serially diluted to the following concentrations with DMSO: 50000, 40000, 30000, 20000, 10000, 8000, 6000, 4000, 3000, 2000, 1500, 1000, 800, 600, 400, 300, 200, 100, 50, 25, 10, 5, 2.5, 1, 0.5, 0.25, and 0.1 μM. 1 μL aliquots of each solution were added to the 96-well plate in triplicate, with each column representing a different concentration of the test compound. The 96-well plate was incubated at 37° C. with an atmosphere of 95% air/5% CO2 for 24 hours. […] Following incubation, the 96-well plate was mixed in a shaking incubator at 200 rpm for 1 minute and absorbances were read at 450 nm using a Biotek H1 Synergy Hybrid Reader (Wanooski, Vt.). […]

C[C@@H]1[C@H](O)[C@@H](C)/C=C/C=C/C=C/C=C/C=C/C=C/C=C/[C@H](O[C@@H]2O[C@H](C)[C@@H](O)[C@H](N)[C@H]2O)CC2O[C@](O)(C[C@@H](O)C[C@@H](O)[C@H](O)CC[C@@H](O)C[C@@H](O)CC(=O)O[C@H]1C)C[C@H](O)[C@H]2C(=O)O [C2′epiAmB]
Toxicity to primary human renal proximal tubule epithelial cells (in words): no evidence of toxicity up to their limits of solubility

Reference: patent US9738677B2, “Amphotericin B derivative with reduced toxicity” (priority 2014, dated 2017)
